Assay results from PMC5218480 (PLoS ONE, 2017).

Test system: MV-4-11 cells
Experiment: Gene expression microarray analysis (Affymetrix PrimeView) and GSEA
Assay type: cell-based, human
Parameters: RFU PODN (11730768_x_at) / Fold change /veh PODN (11730768_x_at) / RFU LINC00158 (11744669_a_at) / Fold change /veh LINC00158 (11744669_a_at) / RFU DUSP10 (11751237_a_at) / Fold change /veh DUSP10 (11751237_a_at) / RFU ID3 (11757404_x_at) / Fold change /veh ID3 (11757404_x_at) / RFU PLEKHG5 (11737974_s_at) / Fold change /veh PLEKHG5 (11737974_s_at) / RFU LRRC4B (11730491_at) / Fold change /veh LRRC4B (11730491_at) / RFU GIMAP4 (11747438_a_at) / Fold change /veh GIMAP4 (11747438_a_at) / RFU KRT8 (11758183_x_at) / Fold change /veh KRT8 (11758183_x_at) / RFU CNN1 (11734310_a_at) / Fold change /veh CNN1 (11734310_a_at) / RFU VPS37D (11726825_at) / Fold change /veh VPS37D (11726825_at) / RFU C10orf10 (11716522_x_at) / Fold change /veh C10orf10 (11716522_x_at) / RFU KIR2DL2 /// KIR2DL4 /// KIR2DL5A /// KIR2DL5B /// KIR2DS1 /// KIR2DS2 /// KIR2DS3 /// KIR2DS4 /// KIR3DL3 /// KIR3DL3 /// KIR3DS1 (11738374_at) / Fold change /veh KIR2DL2 /// KIR2DL4 /// KIR2DL5A /// KIR2DL5B /// KIR2DS1 /// KIR2DS2 /// KIR2DS3 /// KIR2DS4 /// KIR3DL3 /// KIR3DL3 /// KIR3DS1 (11738374_at) / RFU C1QL1 (11718748_at) / Fold change /veh C1QL1 (11718748_at) / RFU TMPRSS4 (11747572_a_at) / Fold change /veh TMPRSS4 (11747572_a_at) / RFU HAMP (11756126_x_at) / Fold change /veh HAMP (11756126_x_at) / RFU RNFT2 (11725882_a_at) / Fold change /veh RNFT2 (11725882_a_at) / RFU NR4A2 (11747474_a_at) / Fold change /veh NR4A2 (11747474_a_at) / RFU ABCC12 (11746883_a_at) / Fold change /veh ABCC12 (11746883_a_at) / RFU TMEM136 (11760407_x_at) / Fold change /veh TMEM136 (11760407_x_at) / RFU CLDN22 /// WWC2 (11732394_at) / Fold change /veh CLDN22 /// WWC2 (11732394_at) / RFU HLA-DPB1 (11760878_x_at) / Fold change /veh HLA-DPB1 (11760878_x_at) / RFU SPINT1 (11716480_a_at) / Fold change /veh SPINT1 (11716480_a_at) / RFU GAP43 (11754022_s_at) / Fold change /veh GAP43 (11754022_s_at) / RFU A4GNT (11735810_at) / Fold change /veh A4GNT (11735810_at) / RFU PRB3 (11715151_x_at) / Fold change /veh PRB3 (11715151_x_at) / RFU TUBB4B (11761932_at) / Fold change /veh TUBB4B (11761932_at) / RFU CAPN14 (11732068_a_at) / Fold change /veh CAPN14 (11732068_a_at) / RFU TMCC2 (11721928_a_at) / Fold change /veh TMCC2 (11721928_a_at) / RFU IRGQ (11745062_a_at) / Fold change /veh IRGQ (11745062_a_at) / RFU FAM174B (11720279_a_at) / Fold change /veh FAM174B (11720279_a_at) / RFU TMPRSS4 (11748680_a_at) / Fold change /veh TMPRSS4 (11748680_a_at) / RFU FAM212B (11763350_a_at) / Fold change /veh FAM212B (11763350_a_at) / RFU PLEKHG5 (11743358_a_at) / Fold change /veh PLEKHG5 (11743358_a_at) / RFU ZSCAN30 (11745921_a_at) / Fold change /veh ZSCAN30 (11745921_a_at) / RFU CMKLR1 (11741424_a_at) / Fold change /veh CMKLR1 (11741424_a_at) / RFU LOC101060620 /// MAPK8IP1 (11723275_at) / Fold change /veh LOC101060620 /// MAPK8IP1 (11723275_at) / RFU SPTSSB (11747773_x_at) / Fold change /veh SPTSSB (11747773_x_at) / RFU PRSS12 (11739890_at) / Fold change /veh PRSS12 (11739890_at) / RFU BIN1 (11741810_x_at) / Fold change /veh BIN1 (11741810_x_at) / RFU WNT11 (11732464_a_at) / Fold change /veh WNT11 (11732464_a_at) / RFU C10orf10 (11716521_a_at) / Fold change /veh C10orf10 (11716521_a_at) / RFU C5orf56 (11738089_at) / Fold change /veh C5orf56 (11738089_at) / RFU CYB561 (11721691_x_at) / Fold change /veh CYB561 (11721691_x_at) / RFU ANKRD19P (11752326_a_at) / Fold change /veh ANKRD19P (11752326_a_at) / RFU OR2T12 /// OR2T33 /// OR2T8 (11738714_s_at) / Fold change /veh OR2T12 /// OR2T33 /// OR2T8 (11738714_s_at) / RFU VCAN (11748164_a_at) / Fold change /veh VCAN (11748164_a_at) / RFU JSRP1 (11732532_at) / Fold change /veh JSRP1 (11732532_at) / RFU KRTAP10-11 (11738290_x_at) / Fold change /veh KRTAP10-11 (11738290_x_at) / RFU MYO3A (11730013_a_at) / Fold change /veh MYO3A (11730013_a_at) / RFU EBF3 (11725865_a_at) / Fold change /veh EBF3 (11725865_a_at) / RFU CAMK2N1 (11719241_x_at) / Fold change /veh CAMK2N1 (11719241_x_at) / RFU C5orf56 (11738088_a_at) / Fold change /veh C5orf56 (11738088_a_at) / RFU OLFML3 (11715873_a_at) / Fold change /veh OLFML3 (11715873_a_at) / RFU LOC100653217 /// NTM (11731650_a_at) / Fold change /veh LOC100653217 /// NTM (11731650_a_at) / RFU MAPK11 (11762145_a_at) / Fold change /veh MAPK11 (11762145_a_at) / RFU FIZ1 (11724087_x_at) / Fold change /veh FIZ1 (11724087_x_at) / RFU OASL (11726364_x_at) / Fold change /veh OASL (11726364_x_at) / RFU SOX15 (11748057_x_at) / Fold change /veh SOX15 (11748057_x_at) / RFU CD79A (11719716_a_at) / Fold change /veh CD79A (11719716_a_at) / RFU HIST1H1D (11736915_at) / Fold change /veh HIST1H1D (11736915_at) / RFU CASKIN2 (11723855_a_at) / Fold change /veh CASKIN2 (11723855_a_at) / RFU LOC730098 (11760151_x_at) / Fold change /veh LOC730098 (11760151_x_at) / RFU OR4N2 (11742367_at) / Fold change /veh OR4N2 (11742367_at) / RFU PRRT2 (11749266_a_at) / Fold change /veh PRRT2 (11749266_a_at) / RFU SNX32 (11753110_a_at) / Fold change /veh SNX32 (11753110_a_at) / RFU CDHR5 (11726645_a_at) / Fold change /veh CDHR5 (11726645_a_at) / RFU RCAN1 (11760418_a_at) / Fold change /veh RCAN1 (11760418_a_at) / RFU FAM167A (11723789_a_at) / Fold change /veh FAM167A (11723789_a_at) / RFU FAM26E (11764081_at) / Fold change /veh FAM26E (11764081_at) / RFU ISYNA1 (11749810_s_at) / Fold change /veh ISYNA1 (11749810_s_at) / RFU ACY1 (11761880_at) / Fold change /veh ACY1 (11761880_at) / RFU 11764098_at / Fold change /veh 11764098_at / RFU SAMD14 (11745864_x_at) / Fold change /veh SAMD14 (11745864_x_at) / RFU NPB (11741838_a_at) / Fold change /veh NPB (11741838_a_at) / RFU TMPRSS6 (11731388_a_at) / Fold change /veh TMPRSS6 (11731388_a_at) / RFU KRTAP10-2 (11738614_at) / Fold change /veh KRTAP10-2 (11738614_at) / RFU ARHGAP8 /// PRR5-ARHGAP8 (11727945_x_at) / Fold change /veh ARHGAP8 /// PRR5-ARHGAP8 (11727945_x_at) / RFU KRTAP5-7 /// NADSYN1 (11734609_at) / Fold change /veh KRTAP5-7 /// NADSYN1 (11734609_at) / RFU RASL12 (11751679_a_at) / Fold change /veh RASL12 (11751679_a_at) / RFU CDKN2B (11736163_a_at) / Fold change /veh CDKN2B (11736163_a_at) / RFU PRF1 (11729649_at) / Fold change /veh PRF1 (11729649_at) / RFU, ZNF638 /// ZNF638-IT1 / Fold change vs veh, ZNF638 /// ZNF638-IT1 / RFU, PANK3 / Fold change vs veh, PANK3 / RFU, SH3YL1 / Fold change vs veh, SH3YL1 / RFU, ZEB2 / Fold change vs veh, ZEB2 / RFU, NRIP1 / Fold change vs veh, NRIP1 / RFU, PTTG1IP / Fold change vs veh, PTTG1IP / RFU, CAPN2 / Fold change vs veh, CAPN2 / RFU, MED14 / Fold change vs veh, MED14 / RFU, SNORA58 / Fold change vs veh, SNORA58 / RFU, C1orf63 / Fold change vs veh, C1orf63 / RFU, LRRFIP1 / Fold change vs veh, LRRFIP1 / RFU, NDUFAF7 / Fold change vs veh, NDUFAF7 / RFU, SLC12A2 / Fold change vs veh, SLC12A2 / RFU, IBTK / Fold change vs veh, IBTK / RFU, ESF1 / Fold change vs veh, ESF1 / Fold change vs veh, TMEM50B / RFU, TAOK1 / Fold change vs veh, TAOK1 / RFU, ACBD3 / Fold change vs veh, ACBD3 / RFU, TMA16 / Fold change vs veh, TMA16 / RFU, RWDD3 / Fold change vs veh, RWDD3 / RFU, BCAT1 / Fold change vs veh, BCAT1 / RFU, EDEM3 / Fold change vs veh, EDEM3 / RFU, TMEM33 / Fold change vs veh, TMEM33 / RFU, WDR75 / Fold change vs veh, WDR75 / RFU, AHCTF1 / Fold change vs veh, AHCTF1 / RFU, TFRC / Fold change vs veh, TFRC / RFU, ZDHHC17 / Fold change vs veh, ZDHHC17 / RFU, NOM1 / Fold change vs veh, NOM1 / RFU, ARL8B / Fold change vs veh, ARL8B / RFU, ZBTB11 / Fold change vs veh, ZBTB11 / RFU, TAMM41 / Fold change vs veh, TAMM41 / RFU, KIAA1704 /// LOC100996395 / Fold change vs veh, KIAA1704 /// LOC100996395 / RFU, ING1 / Fold change vs veh, ING1 / RFU, TRMT61B / Fold change vs veh, TRMT61B / RFU, FUBP3 / Fold change vs veh, FUBP3 / RFU, TP53 / Fold change vs veh, TP53 / RFU, TNKS2 / Fold change vs veh, TNKS2 / RFU, ZFP14 / Fold change vs veh, ZFP14 / RFU, ACTR2 / Fold change vs veh, ACTR2 / RFU, PPP3R1 / Fold change vs veh, PPP3R1 / RFU, PIK3R1 / Fold change vs veh, PIK3R1 / RFU, HNRNPA1 / Fold change vs veh, HNRNPA1 / RFU, RNF170 / Fold change vs veh, RNF170 / RFU, ZNF28 / Fold change vs veh, ZNF28 / RFU, RNGTT / Fold change vs veh, RNGTT / RFU, OGT / Fold change vs veh, OGT / RFU, BRD1 / Fold change vs veh, BRD1 / RFU, MARS / Fold change vs veh, MARS / RFU, ZNF655 / Fold change vs veh, ZNF655 / RFU, FAHD1 / Fold change vs veh, FAHD1 / RFU, BDP1 / Fold change vs veh, BDP1 / RFU, LRRCC1 / Fold change vs veh, LRRCC1 / RFU, ARID1A / Fold change vs veh, ARID1A / RFU, ZNF146 / Fold change vs veh, ZNF146 / RFU, ZNF330 / Fold change vs veh, ZNF330 / RFU, GPN3 / Fold change vs veh, GPN3 / RFU, C9orf123 / Fold change vs veh, C9orf123 / RFU, N4BP2L2 / Fold change vs veh, N4BP2L2 / RFU, ARFIP1 / Fold change vs veh, ARFIP1 / RFU, FAM179B / Fold change vs veh, FAM179B / RFU, BCL10 / Fold change vs veh, BCL10 / RFU, UHRF1BP1L / Fold change vs veh, UHRF1BP1L / RFU, BET1 / Fold change vs veh, BET1 / RFU, CNOT2 / Fold change vs veh, CNOT2 / RFU, ZNF268 / Fold change vs veh, ZNF268 / Fold change vs veh, ZNF507 / RFU, DGCR2 / Fold change vs veh, DGCR2 / RFU, WDSUB1 / Fold change vs veh, WDSUB1 / Fold change vs veh, HSP90B1 /// MIR3652 / RFU, ADSS / Fold change vs veh, ADSS / RFU, GK / Fold change vs veh, GK / RFU, ZNF148 / Fold change vs veh, ZNF148 / RFU, TAF9 / Fold change vs veh, TAF9 / RFU, SLC1A5 / Fold change vs veh, SLC1A5 / RFU, SLMO2 / Fold change vs veh, SLMO2 / RFU, ABCC4 / Fold change vs veh, ABCC4 / RFU, LOC101060439 /// RAP1B / Fold change vs veh, LOC101060439 /// RAP1B / RFU, RFX7 / Fold change vs veh, RFX7 / RFU, GTPBP10 / Fold change vs veh, GTPBP10 / RFU, CNEP1R1 / Fold change vs veh, CNEP1R1 / RFU, BIVM-ERCC5 /// ERCC5 / Fold change vs veh, BIVM-ERCC5 /// ERCC5 / RFU, ILF3 / Fold change vs veh, ILF3 / RFU 11762660_at / Fold change /veh 11762660_at / RFU VCAN (11757783_s_at) / Fold change /veh VCAN (11757783_s_at) / RFU DDX43 (11728927_at) / Fold change /veh DDX43 (11728927_at) / RFU KRT8 (11758188_x_at) / Fold change /veh KRT8 (11758188_x_at) / RFU NKD1 (11759106_at) / Fold change /veh NKD1 (11759106_at) / RFU SRD5A1 (11742802_a_at) / Fold change /veh SRD5A1 (11742802_a_at) / RFU TPSAB1 /// TPSB2 (11721975_s_at) / Fold change /veh TPSAB1 /// TPSB2 (11721975_s_at) / RFU GSTM3 (11746129_a_at) / Fold change /veh GSTM3 (11746129_a_at) / RFU IL23R (11737362_x_at) / Fold change /veh IL23R (11737362_x_at) / RFU TMEM51 (11727254_a_at) / Fold change /veh TMEM51 (11727254_a_at) / RFU PIWIL2 (11732686_x_at) / Fold change /veh PIWIL2 (11732686_x_at) / RFU ORM1 (11744905_x_at) / Fold change /veh ORM1 (11744905_x_at) / RFU CCDC152 (11743942_at) / Fold change /veh CCDC152 (11743942_at) / RFU ECM1 (11717891_a_at) / Fold change /veh ECM1 (11717891_a_at) / RFU IL23R (11748794_a_at) / Fold change /veh IL23R (11748794_a_at) / RFU TNFAIP8L3 (11732012_x_at) / Fold change /veh TNFAIP8L3 (11732012_x_at) / RFU MBOAT4 (11741988_at) / Fold change /veh MBOAT4 (11741988_at) / RFU 11764193_at / Fold change /veh 11764193_at / RFU TMEM53 (11763286_at) / Fold change /veh TMEM53 (11763286_at) / RFU MAGEB2 (11727129_at) / Fold change /veh MAGEB2 (11727129_at) / RFU TMEM200A (11744735_a_at) / Fold change /veh TMEM200A (11744735_a_at) / RFU CCDC152 (11751479_a_at) / Fold change /veh CCDC152 (11751479_a_at) / RFU FAM211A (11726209_a_at) / Fold change /veh FAM211A (11726209_a_at) / RFU RGS16 (11746705_a_at) / Fold change /veh RGS16 (11746705_a_at) / RFU VCAN (11755009_s_at) / Fold change /veh VCAN (11755009_s_at) / RFU RHOB (11743442_s_at) / Fold change /veh RHOB (11743442_s_at) / RFU RGS16 (11720943_a_at) / Fold change /veh RGS16 (11720943_a_at) / RFU RGS16 (11720944_at) / Fold change /veh RGS16 (11720944_at) / RFU, VPS4B / Fold change vs veh, VPS4B / RFU, CREB1 / Fold change vs veh, CREB1 / RFU, DNAJC13 / Fold change vs veh, DNAJC13 / RFU, GNAQ / Fold change vs veh, GNAQ / RFU, CDK5R1 / Fold change vs veh, CDK5R1 / RFU, ZRANB3 / Fold change vs veh, ZRANB3 / RFU, CUL4A / Fold change vs veh, CUL4A / RFU, CCNY / Fold change vs veh, CCNY / RFU, UFL1 / Fold change vs veh, UFL1 / RFU, COG3 / Fold change vs veh, COG3 / RFU, DIAPH2 / Fold change vs veh, DIAPH2 / RFU, SKA2 / Fold change vs veh, SKA2 / RFU, AFF3 / Fold change vs veh, AFF3 / RFU, LMF1 / Fold change vs veh, LMF1 / RFU, IPO11 / Fold change vs veh, IPO11 / RFU, DFFB / Fold change vs veh, DFFB / RFU, FOXP1 / Fold change vs veh, FOXP1 / RFU, CARD8 / Fold change vs veh, CARD8 / RFU, STRN3 / Fold change vs veh, STRN3 / RFU, ADK / Fold change vs veh, ADK / RFU, RASSF2 / Fold change vs veh, RASSF2 / RFU, WIPF1 / Fold change vs veh, WIPF1 / RFU, LARP1B / Fold change vs veh, LARP1B / RFU, RASA1 / Fold change vs veh, RASA1 / RFU, RB1 / Fold change vs veh, RB1 / RFU, PPFIA1 / Fold change vs veh, PPFIA1 / RFU, MAT2A / Fold change vs veh, MAT2A / RFU, CCT5 / Fold change vs veh, CCT5 / RFU, WDR92 / Fold change vs veh, WDR92 / RFU, CUX1 / Fold change vs veh, CUX1 / RFU, TTC7A / Fold change vs veh, TTC7A / RFU, TMEM135 / Fold change vs veh, TMEM135 / RFU, DEPTOR / Fold change vs veh, DEPTOR / RFU, CPM / Fold change vs veh, CPM / RFU, DNAJB6 / Fold change vs veh, DNAJB6 / RFU, CACNA2D3 / Fold change vs veh, CACNA2D3 / RFU, DTX4 / Fold change vs veh, DTX4 / RFU, TFCP2 / Fold change vs veh, TFCP2 / RFU, GMCL1 /// GMCL1P1 / Fold change vs veh, GMCL1 /// GMCL1P1 / RFU, AEBP2 / Fold change vs veh, AEBP2 / RFU, SNHG1 /// SNORD22 /// SNORD25 /// SNORD26 /// SNORD27 /// SNORD28 /// SNORD29 /// SNORD31 / Fold change vs veh, SNHG1 /// SNORD22 /// SNORD25 /// SNORD26 /// SNORD27 /// SNORD28 /// SNORD29 /// SNORD31 / Fold change (Aza/veh), C12orf56 (ProbeSet 11735607_a_at) / Fold change (ACY-1035/veh), C12orf56 (ProbeSet 11735607_a_at) / Fold change (Aza/veh), FGFR1OP (ProbeSet 11751329_s_at) / Fold change (ACY-1035/veh), FGFR1OP (ProbeSet 11751329_s_at) / Fold change (Aza/veh), VPS36 (ProbeSet 11739960_a_at) / Fold change (ACY-1035/veh), VPS36 (ProbeSet 11739960_a_at) / RFU SYPL1 (11715823_x_at) / Fold change /veh SYPL1 (11715823_x_at) / RFU IGFBP7 (11715501_s_at) / Fold change /veh IGFBP7 (11715501_s_at) / RFU REEP3 (11722064_at) / Fold change /veh REEP3 (11722064_at) / RFU IGLL1 (11728026_x_at) / Fold change /veh IGLL1 (11728026_x_at): dose or concentration left out as unconfirmed
Settings: ProbeSet 11746640_a_at; LIST D

Nc1ncn([C@@H]2O[C@H](CO)[C@@H](O)[C@H]2O)c(=O)n1 [azacitidine]
RFU, RASSF2: 35.94 RFU
